# Biological target: T1, AT-III (Homo sapiens, UniProt P01008)
# T1 construct: purchased Bayer Corp
# Experiment: AT-III field-effect sensor binding (differential surface potential dose-response)
# Conditions: covalently immobilized biotinylated AT-III on the active sensor, BSA-passivated control sensor, dose-response curve FIG. 4B
# Excerpt: In one embodiment, AT-III is used as a covalently immobilized surface receptor. In this embodiment, the present invention can monitor active heparin. FIG. 4A illustrates the surface immobilization chemistry according to this embodiment. The surface immobilization chemistry involves aldehyde-terminated silanization of the SiO2 surface, followed by the reductive amination of the aldehyde groups to the surface-exposed amino groups of avidin, blocking the unreacted sites by ethanolamine, and attachment of covalently-immobilized avidin to biotinylated AT-III. […] Upon deblocking, the resulting bAT-III remains fully active because the heparin-binding site remains intact and unhindered because the introduced biotin groups are positioned away from it. This immobilization strategy ensures full activity and the desired surface orientation of AT-III for maximizing the sensor performance. […] The selectivity of the AT-III sensor to heparin sequence was measured by examining the binding affinity to chondroitin sulfate, a negatively charged polysaccharide structurally related to heparin. […]
# The surface potential of the filed sensitive region was determined by applying an AC signal (50 mV sine wave at 4 kHz) to the reference electrode and measuring the resulting current through the EIS structure with a current preamp (Keithley Model 428) and lock-in amplifier. […]
# T1 sequence (P01008 33-464): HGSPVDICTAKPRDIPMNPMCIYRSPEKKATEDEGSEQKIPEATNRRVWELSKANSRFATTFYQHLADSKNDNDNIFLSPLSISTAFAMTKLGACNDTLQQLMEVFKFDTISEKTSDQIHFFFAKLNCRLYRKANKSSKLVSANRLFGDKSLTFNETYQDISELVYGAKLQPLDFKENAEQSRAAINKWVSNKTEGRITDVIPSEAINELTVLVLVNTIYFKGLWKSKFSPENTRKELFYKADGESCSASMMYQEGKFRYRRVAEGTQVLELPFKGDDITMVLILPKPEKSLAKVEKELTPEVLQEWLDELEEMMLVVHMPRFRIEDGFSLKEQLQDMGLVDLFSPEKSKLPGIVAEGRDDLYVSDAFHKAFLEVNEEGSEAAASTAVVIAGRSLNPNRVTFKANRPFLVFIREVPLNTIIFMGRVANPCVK
substance,measurement,value
chondroitin sulfate,"response of the AT-III sensor (binding affinity, selectivity versus heparin)",neglible

# — patent US20070212786A1, “Monitoring heparin by microelectronic devices” (priority 2005, published 2007)
